Like-named read-outs stand apart in the source and are kept apart here.
Experiments:
SARS-CoV-2 = test: microbe, parasite or virus in culture; type: cell-based; conditions: Vero-E6, MOI 0.05, 48 h
[1] = some healthy subjects, 3 hours after taking the drug; cited from earlier work
[2] = rats, oral 54 mg/kg, cited from earlier work
[3] = cited from earlier work
[4] = rats, Male, cited from earlier work

## CCOC(=O)c1c(CSc2ccccc2)n(C)c2cc(Br)c(O)c(CN(C)C)c12 [Arbidol, arbidol]
SARS-CoV-2; 3 μM
  Inhibiting rate, %: 21.73%
SARS-CoV-2; Severe acute respiratory syndrome coronavirus 2, Vero C1008, 48 h, read-out: Inhibiting rate, %, 3 μM
  inhibition at 3 µM: 21%
SARS-CoV-2; Severe acute respiratory syndrome coronavirus 2, Vero C1008, 48 h, read-out: Inhibiting rate, %, 30 μM
  inhibition at 30 µM: 98.9%
[1]
  Heart rate decrease: 2-24 beats/minute
[2]; 5 min
  Tissue concentration, Brain: 101 ± 67
  Tissue concentration, Heart: 72 ± 47
  Tissue concentration, Kidney: 79 ± 54
  Tissue concentration, Liver: 104 ± 82
  Tissue concentration, Spleen: 48 ± 35
  Tissue concentration, Stomach: 8210 ± 5410
[2]; 15 min
  Tissue concentration, Brain: 50 ± 10
  Tissue concentration, Heart: 132 ± 69
  Tissue concentration, Kidney: 259 ± 190
  Tissue concentration, Liver: 963 ± 290
  Tissue concentration, Spleen: 519 ± 281
  Tissue concentration, Stomach: 23180 ± 10170
[2]; 360 min
  Tissue concentration, Brain: 31 ± 21
  Tissue concentration, Heart: 41 ± 28
  Tissue concentration, Kidney: 58 ± 21
  Tissue concentration, Liver: 262 ± 175
  Tissue concentration, Spleen: 143 ± 51
  Tissue concentration, Stomach: 52750 ± 3059
[3]; nausea, diarrhea, dizziness, increased serum transaminases
  Adverse events, share of subjects: about 6.2%
[3]; single oral dose 200 mg
  Peak concentration: 614.1 ± 342.5 ng/mL
[3]; single oral dose 400 mg
  Peak concentration: 904.2 ± 355.6 ng/mL
[3]; single oral dose 600 mg
  Peak concentration: 975.1 ± 661.0 ng/mL
[4]; oral 18 mg/kg
  AUC0-t: 1956 ± 895 ngh/mL
  AUC0-∞: 2224 ± 1058 ngh/mL
  Cmax: 1002 ± 298 ng/mL
  Tmax: 0.28 h
  t1/2: 3.6 ± 1.2 h
[4]; oral 54 mg/kg
  AUC0-t: 6790 ± 2749 ngh/mL
  AUC0-∞: 7558 ± 2877 ngh/mL
  Cmax: 4711 ± 2361 ng/mL
  Tmax: 0.18 h
  t1/2: 3.3 ± 0.7 h

Reference: patent US20240016775A1, “ANTI-CORONAVIRUS APPLICATION OF POLY ADP RIBOSE POLYMERASE INHIBITOR” (FUKANG (SHANGHAI) HEALTH TECHNOLOGY CO., LTD, priority 2020, published 2024)
